For 16 compounds, IC50 results are on record in patent publication US20150087627A1, “COMBINATION OF KINASE INHIBITORS AND USES THEREOF” (Intellikine LLC, priority 2011, published 2015).

What all share (type): biochemical
Test [1] concerns the target T1, PI3K α (p110α/p85α) (Homo sapiens, UniProt P42336).
T1 construct: purchased Upstate / Millipore Corporation
In words: PI 3-Kinase (human) HTRF assay, PI3K α. To be noted: read-out: PI3K α IC50. On the technique in general: Time-resolved FRET reads energy transfer from a long-lived donor to a nearby acceptor.
Procedure: (§1) Briefly, the assay is a time resolved FRET assay that indirectly measures PIP3 product formed by the activity of a PI3-K. The kinase reaction is performed in a microtiter plate (e.g., a 384 well microtiter plate). The total reaction volume is approximately 20 ul per well. In the first step, each well receives 2 ul of test compound in 20% dimethylsulphoxide resulting in a 2% DMSO final concentration. […] The plate is sealed and incubated for 15 minutes at room temperature. […] The plate is sealed and incubated for 1 hour at room temperature. The reaction is stopped by adding 5 ul of Stop Solution per well and then 5 ul of Detection Mix is added per well. The plate is sealed, incubated for 1 hour at room temperature, and then read on an appropriate plate reader. Data is analyzed and IC50s are generated using GraphPad Prism 5.

Test [2] concerns the target T2, PI3K β (p110β/p85α) (Homo sapiens, UniProt P42338).
T2 construct: purchased Upstate / Millipore Corporation
The test can be described thus: PI 3-Kinase (human) HTRF assay, PI3K β. To be noted: read-out: PI3K β IC50.

For test [3], the target named is T3, PI3K γ (p110γ) (Homo sapiens, UniProt P48736).
T3 construct: purchased Upstate / Millipore Corporation
The test can be described thus: PI 3-Kinase (human) HTRF assay, PI3K γ. To be noted: read-out: PI3K γ IC50.
Procedure: as §1

Test [4] addresses T4, PI3K δ (Homo sapiens, UniProt O00329).
T4 construct: purchased Upstate / Millipore Corporation
In words: PI 3-Kinase (human) HTRF assay, PI3K δ. To be noted: read-out: PI3K δ IC50.

SMILES strings stand for the structures. Some results are limits rather than exact numbers.

T2 sequence (P42338 whole entry): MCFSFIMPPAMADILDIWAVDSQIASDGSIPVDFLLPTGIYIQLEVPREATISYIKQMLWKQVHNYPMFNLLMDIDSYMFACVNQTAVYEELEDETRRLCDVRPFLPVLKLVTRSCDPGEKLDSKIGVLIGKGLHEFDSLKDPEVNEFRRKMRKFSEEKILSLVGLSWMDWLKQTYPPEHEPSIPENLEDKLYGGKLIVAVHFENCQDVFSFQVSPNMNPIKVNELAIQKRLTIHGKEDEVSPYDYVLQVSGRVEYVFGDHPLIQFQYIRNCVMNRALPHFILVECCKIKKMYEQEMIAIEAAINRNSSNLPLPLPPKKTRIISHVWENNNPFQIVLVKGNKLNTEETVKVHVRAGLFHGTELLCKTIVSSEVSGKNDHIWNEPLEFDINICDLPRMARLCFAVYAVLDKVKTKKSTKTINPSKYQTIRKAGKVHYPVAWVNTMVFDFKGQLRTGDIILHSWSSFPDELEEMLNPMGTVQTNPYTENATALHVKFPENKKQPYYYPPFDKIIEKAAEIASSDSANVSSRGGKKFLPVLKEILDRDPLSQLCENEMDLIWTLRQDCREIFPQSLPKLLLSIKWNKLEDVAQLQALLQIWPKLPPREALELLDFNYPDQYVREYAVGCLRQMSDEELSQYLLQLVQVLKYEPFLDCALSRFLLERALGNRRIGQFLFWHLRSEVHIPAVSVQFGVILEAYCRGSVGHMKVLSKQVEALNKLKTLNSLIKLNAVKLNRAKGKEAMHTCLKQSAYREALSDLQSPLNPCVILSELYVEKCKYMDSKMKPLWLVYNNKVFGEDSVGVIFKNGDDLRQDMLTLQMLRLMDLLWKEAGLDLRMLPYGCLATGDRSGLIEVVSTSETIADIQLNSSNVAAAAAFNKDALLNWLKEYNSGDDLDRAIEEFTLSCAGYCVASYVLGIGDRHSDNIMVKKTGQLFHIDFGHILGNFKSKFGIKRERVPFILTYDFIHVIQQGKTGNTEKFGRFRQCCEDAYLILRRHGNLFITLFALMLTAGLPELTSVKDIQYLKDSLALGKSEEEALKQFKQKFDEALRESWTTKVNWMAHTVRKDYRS
T2 sequence (P27986 whole entry partner): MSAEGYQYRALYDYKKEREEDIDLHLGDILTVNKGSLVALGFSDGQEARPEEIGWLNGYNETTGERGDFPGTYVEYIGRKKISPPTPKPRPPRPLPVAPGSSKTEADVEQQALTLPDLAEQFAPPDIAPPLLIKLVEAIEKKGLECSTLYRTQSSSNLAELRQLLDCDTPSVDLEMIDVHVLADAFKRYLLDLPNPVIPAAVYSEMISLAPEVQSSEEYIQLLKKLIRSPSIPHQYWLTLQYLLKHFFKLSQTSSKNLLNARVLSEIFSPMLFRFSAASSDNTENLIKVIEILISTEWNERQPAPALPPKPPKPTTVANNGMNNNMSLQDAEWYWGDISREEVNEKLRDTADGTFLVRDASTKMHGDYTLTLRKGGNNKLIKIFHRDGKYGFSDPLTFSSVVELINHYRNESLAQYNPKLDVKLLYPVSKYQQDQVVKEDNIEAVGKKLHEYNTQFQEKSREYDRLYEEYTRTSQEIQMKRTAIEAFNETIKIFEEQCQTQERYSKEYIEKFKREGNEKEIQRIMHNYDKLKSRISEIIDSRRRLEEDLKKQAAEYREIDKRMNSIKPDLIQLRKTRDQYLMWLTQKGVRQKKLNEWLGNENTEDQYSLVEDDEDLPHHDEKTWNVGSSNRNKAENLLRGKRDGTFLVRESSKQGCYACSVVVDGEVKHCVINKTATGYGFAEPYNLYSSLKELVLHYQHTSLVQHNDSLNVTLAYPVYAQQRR
T1 sequence (P42336 whole entry): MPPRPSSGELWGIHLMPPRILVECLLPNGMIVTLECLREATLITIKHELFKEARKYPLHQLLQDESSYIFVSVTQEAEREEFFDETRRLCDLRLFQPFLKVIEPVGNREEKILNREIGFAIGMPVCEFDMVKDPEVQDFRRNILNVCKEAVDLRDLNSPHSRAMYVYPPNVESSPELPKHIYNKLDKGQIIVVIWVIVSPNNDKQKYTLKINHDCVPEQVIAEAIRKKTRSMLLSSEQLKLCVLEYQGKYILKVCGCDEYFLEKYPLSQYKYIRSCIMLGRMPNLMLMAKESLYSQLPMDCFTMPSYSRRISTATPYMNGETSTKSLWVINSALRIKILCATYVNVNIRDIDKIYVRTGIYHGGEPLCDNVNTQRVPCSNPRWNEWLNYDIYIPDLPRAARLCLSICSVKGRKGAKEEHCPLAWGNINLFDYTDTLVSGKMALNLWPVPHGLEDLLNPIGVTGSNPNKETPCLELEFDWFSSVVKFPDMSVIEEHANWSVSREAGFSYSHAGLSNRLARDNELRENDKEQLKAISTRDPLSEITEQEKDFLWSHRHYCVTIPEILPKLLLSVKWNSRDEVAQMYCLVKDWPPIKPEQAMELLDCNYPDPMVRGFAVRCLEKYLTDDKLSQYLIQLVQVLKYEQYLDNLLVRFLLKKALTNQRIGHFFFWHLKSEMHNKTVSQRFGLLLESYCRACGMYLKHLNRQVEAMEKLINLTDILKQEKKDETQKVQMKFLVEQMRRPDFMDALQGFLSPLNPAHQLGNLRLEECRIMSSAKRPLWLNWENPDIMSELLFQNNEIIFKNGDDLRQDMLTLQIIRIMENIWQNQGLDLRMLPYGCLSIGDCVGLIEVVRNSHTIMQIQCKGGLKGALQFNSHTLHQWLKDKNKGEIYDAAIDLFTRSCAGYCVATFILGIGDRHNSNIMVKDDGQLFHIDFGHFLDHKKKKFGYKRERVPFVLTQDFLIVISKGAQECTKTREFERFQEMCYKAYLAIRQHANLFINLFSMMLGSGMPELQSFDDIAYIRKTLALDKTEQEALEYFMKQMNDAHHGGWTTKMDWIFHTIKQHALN
T1 sequence (P27986 whole entry partner): as the sequence (P27986 whole entry partner) above
T4 sequence (O00329 whole entry): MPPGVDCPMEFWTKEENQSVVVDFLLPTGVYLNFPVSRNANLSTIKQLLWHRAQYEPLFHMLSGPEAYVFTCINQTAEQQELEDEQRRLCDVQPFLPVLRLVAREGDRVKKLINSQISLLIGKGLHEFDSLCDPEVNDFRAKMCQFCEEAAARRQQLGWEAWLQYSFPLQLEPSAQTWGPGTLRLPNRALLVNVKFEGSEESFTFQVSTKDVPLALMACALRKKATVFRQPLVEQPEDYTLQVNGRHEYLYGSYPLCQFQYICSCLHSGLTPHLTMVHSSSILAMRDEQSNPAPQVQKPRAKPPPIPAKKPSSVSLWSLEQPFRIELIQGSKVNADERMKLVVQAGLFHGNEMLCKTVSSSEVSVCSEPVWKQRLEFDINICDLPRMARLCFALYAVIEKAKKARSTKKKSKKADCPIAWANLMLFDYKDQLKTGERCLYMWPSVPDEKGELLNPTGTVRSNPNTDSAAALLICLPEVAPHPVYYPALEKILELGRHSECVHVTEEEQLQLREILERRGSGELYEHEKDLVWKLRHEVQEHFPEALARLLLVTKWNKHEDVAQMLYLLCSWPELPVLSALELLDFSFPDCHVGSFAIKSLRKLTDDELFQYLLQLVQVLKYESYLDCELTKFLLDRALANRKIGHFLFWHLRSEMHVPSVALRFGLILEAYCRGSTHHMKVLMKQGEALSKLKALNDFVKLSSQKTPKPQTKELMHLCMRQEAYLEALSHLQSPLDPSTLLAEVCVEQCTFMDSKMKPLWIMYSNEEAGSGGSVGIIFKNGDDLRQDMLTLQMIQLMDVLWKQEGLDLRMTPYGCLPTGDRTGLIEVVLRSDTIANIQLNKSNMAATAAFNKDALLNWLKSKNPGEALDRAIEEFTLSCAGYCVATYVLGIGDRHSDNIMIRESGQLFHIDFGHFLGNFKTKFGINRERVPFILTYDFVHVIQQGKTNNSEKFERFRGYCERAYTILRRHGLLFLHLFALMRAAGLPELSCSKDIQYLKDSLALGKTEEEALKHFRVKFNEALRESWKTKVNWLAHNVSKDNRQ
T4 sequence (P27986 whole entry partner): as the sequence (P27986 whole entry partner) above
T3 sequence (P48736 whole entry): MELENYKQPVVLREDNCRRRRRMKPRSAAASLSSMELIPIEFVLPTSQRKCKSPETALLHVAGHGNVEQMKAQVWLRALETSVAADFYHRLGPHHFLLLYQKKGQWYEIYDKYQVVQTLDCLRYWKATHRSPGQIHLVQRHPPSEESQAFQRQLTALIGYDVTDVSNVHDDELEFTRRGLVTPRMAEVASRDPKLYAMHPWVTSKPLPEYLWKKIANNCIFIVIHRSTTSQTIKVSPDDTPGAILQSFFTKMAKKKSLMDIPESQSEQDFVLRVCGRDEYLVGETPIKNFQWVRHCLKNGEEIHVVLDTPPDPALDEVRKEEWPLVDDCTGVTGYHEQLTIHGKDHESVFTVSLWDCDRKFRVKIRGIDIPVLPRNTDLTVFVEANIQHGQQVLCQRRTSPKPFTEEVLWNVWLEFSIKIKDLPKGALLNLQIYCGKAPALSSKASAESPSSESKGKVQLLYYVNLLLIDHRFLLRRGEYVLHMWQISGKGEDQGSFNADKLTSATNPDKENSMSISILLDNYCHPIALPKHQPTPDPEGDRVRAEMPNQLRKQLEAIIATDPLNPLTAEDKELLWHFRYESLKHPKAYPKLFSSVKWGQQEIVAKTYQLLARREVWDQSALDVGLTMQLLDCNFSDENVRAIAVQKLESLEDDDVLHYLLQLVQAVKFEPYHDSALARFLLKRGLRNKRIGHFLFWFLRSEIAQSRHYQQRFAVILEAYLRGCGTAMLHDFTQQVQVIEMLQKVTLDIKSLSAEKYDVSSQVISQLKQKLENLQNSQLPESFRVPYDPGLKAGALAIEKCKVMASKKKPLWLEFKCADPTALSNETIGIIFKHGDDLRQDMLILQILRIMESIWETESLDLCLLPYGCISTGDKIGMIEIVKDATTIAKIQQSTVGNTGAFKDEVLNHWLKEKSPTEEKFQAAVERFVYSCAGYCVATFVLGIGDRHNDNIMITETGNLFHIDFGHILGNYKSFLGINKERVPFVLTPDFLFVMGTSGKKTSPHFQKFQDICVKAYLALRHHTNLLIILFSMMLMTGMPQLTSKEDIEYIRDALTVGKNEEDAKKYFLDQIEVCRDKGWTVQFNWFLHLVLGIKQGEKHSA

Consider `CC(=O)Nc1cc2ccc(-c3cc(F)c4oc(N)nc4c3)cn2n1` [Compound 401], for which the half-maximal inhibitory concentration (IC50) (usually the concentration at which inhibition is half-maximal) in test [1] was greater than 10 µM; in test [2], greater than 10 µM; in test [3], less than 10 µM; in test [4], greater than 10 µM.
Regarding `Nc1nc2cc(-c3ccc4ncc(C(=O)N5CCC5)n4c3)ccc2o1` [Compound 197], the 50% inhibitory concentration (IC50) in test [1] was less than 0.1 µM; in test [2], less than 10 µM; in test [3], less than 0.1 µM; in test [4], less than 10 µM.
For `CS(=O)(=O)Nc1cc(-c2ccc3ncc(C(=O)N4CCOCC4)n3c2)ccc1Cl` [Compound 460], the IC50 in test [1] is less than 10 µM; in test [2] it was greater than 10 µM; in test [3], greater than 10 µM; in test [4], greater than 10 µM.
Turning to `Cc1ncccc1-c1cnc2ccc(-c3ccc4oc(N)nc4c3)cc2n1` [Compound 185], the IC50 in test [1] was less than 1 µM; in test [2] it was greater than 10 µM; in test [3] it was greater than 10 µM; in test [4] it was greater than 10 µM.
With `CN1CCC(Nc2cnc3ccc(-c4ccc5oc(N)nc5c4)cc3n2)CC1` [Compound 81], the IC50 in test [1] is less than 0.1 µM; in test [2], less than 1 µM; in test [3], less than 1 µM; in test [4], less than 0.1 µM.
As for `Nc1noc2c(-c3ccc4ncc(C(=O)N5CCOCC5)n4c3)cccc12` [Compound 491], the IC50 in test [1], in test [2], in test [3] and in test [4] was greater than 10 µM each time.
On to `Nc1nc2cc(-c3ccc4ncc(N5CCS(=O)(=O)CC5)nc4c3)ccc2o1` [Compound 98], for which the IC50 is less than 0.1 µM in test [1], greater than 10 µM in test [2], less than 0.1 µM in test [3] and greater than 10 µM in test [4].
`Nc1nc2cc(-c3ccc4ncc(-c5ccc(N6CCOCC6)nc5)n4c3)ccc2o1` [Compound 51]: the IC50 was less than 0.1 µM in test [1], less than 1 µM in test [2], less than 1 µM in test [3] and less than 1 µM in test [4].
For `Nc1nc2cc(-c3ccc4ncc(C(=O)N5CCC(N6CCC(F)(F)C6)C5)n4c3)ccc2o1` (stereo not shown) [Compound 500], the IC50 in test [1] is less than 1 µM; in test [2] it was greater than 10 µM; in test [3] it was less than 10 µM; in test [4] it was less than 10 µM.
On to `Nc1nc2cc(-c3ccc4ncc(C(=O)N5CC(O)C5)n4c3)ccc2o1` [Compound 200], for which the IC50 was less than 0.1 µM in test [1], less than 10 µM in test [2], less than 0.1 µM in test [3] and less than 10 µM in test [4].
In the case of `NC(=O)[C@@H]1CCCN1c1cnc2ccc(-c3ccc4oc(N)nc4c3)cc2n1` [Compound 257], the IC50 in test [1] is less than 0.1 µM; in test [2], greater than 10 µM; in test [3], greater than 10 µM; in test [4], greater than 10 µM.
In the case of `CS(=O)(=O)CCN1CCC(NC(=O)c2cnc3ccc(-c4ccc5oc(N)nc5c4)cn23)CC1` [Compound 199], the IC50 in test [1] was less than 0.1 µM; in test [2], less than 10 µM; in test [3] it was less than 0.1 µM; in test [4], less than 0.1 µM.
`Nc1nc2cc(-c3ccc4ncc(C(=O)N5CC[C@@H](N6CCOCC6)C5)n4c3)ccc2o1` [Compound 466]: the concentration for half-maximal inhibition (IC50) in test [1] was less than 1 µM; in test [2], less than 10 µM; in test [3] it was less than 1 µM; in test [4], less than 10 µM.
`CC(=O)NC1CCN(C(=O)c2cnc3ccc(-c4ccc5oc(N)nc5c4)cn23)CC1` [Compound 147]: the 50% inhibitory concentration (IC50) in test [1] is less than 1 µM; in test [2] it was less than 10 µM; in test [3] it was less than 10 µM; in test [4] it was less than 10 µM.
For the compound `COc1ncc(-c2ccc3ncn(C4CCN(C)CC4)c(=O)c3c2)cc1NS(C)(=O)=O` [Compound 525], the IC50 in test [1] is less than 0.1 µM; in test [2], less than 1 µM; in test [3], less than 10 µM; in test [4] it was less than 0.1 µM.
Turning to `CC1CN(C(=O)c2cnc3ccc(-c4ccc5oc(N)nc5c4)cn23)CCO1` (stereo not shown) [Compound 201], the IC50 in test [1] was less than 0.1 µM; in test [2], less than 10 µM; in test [3], less than 10 µM; in test [4], greater than 10 µM.
